Measured values from ChEMBL document CHEMBL3880402, “Inhibitors of E1 activating enzymes” (2006).

What follows are molecules tested against T1, NEDD8-activating enzyme E1 catalytic subunit (Homo sapiens, UniProt Q8TBC4) (assay: Inhibition of recombinant human untagged NAEalpha/N-terminal His-tagged NAEbeta expressed in Bac-to-Bac expression system using FLAG-tagged NEDD8 as substrate after 90 mins in presence of GST-tagged Ubc12 by HTRF assay).
T1 sequence (Q8TBC4 whole entry): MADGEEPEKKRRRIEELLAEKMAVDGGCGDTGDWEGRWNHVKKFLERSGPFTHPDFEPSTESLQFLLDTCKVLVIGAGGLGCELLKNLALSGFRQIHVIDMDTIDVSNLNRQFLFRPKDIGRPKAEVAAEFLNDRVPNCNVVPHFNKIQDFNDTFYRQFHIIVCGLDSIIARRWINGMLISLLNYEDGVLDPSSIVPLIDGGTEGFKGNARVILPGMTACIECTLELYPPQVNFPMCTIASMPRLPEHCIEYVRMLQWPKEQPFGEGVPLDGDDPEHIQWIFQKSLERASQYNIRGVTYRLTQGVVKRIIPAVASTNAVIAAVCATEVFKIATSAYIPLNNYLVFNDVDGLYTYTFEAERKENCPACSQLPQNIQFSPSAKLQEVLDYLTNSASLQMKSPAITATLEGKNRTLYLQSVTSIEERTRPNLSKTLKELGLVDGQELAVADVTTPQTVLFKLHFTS

Row | Structure (SMILES) | IC50 [nM]
1 | NS(=O)(=O)OC[C@H]1O[C@@H](n2cnc3c(Nc4ccc(Cl)cc4)ncnc32)[C@H](O)[C@@H]1O | 100 to 1000
2 | NS(=O)(=O)OC[C@H]1O[C@@H](n2cnc3c(C#Cc4ccccc4Cl)ncnc32)[C@H](O)[C@@H]1O | 100 to 1000
3 | NS(=O)(=O)OC[C@H]1O[C@@H](n2cnc3c(CNC(=O)c4cc(F)cc(F)c4)ncnc32)[C@H](O)[C@@H]1O | 100 to 1000
4 | NS(=O)(=O)OC[C@H]1O[C@@H](n2cnc3c(NS(=O)(=O)c4ccccc4)ncnc32)[C@H](O)[C@@H]1O | 100 to 1000
5 | COCCNc1ncnc2c1ncn2[C@@H]1O[C@H](CNS(N)(=O)=O)[C@@H](O)[C@H]1O | ≤ 1000
6 | NS(=O)(=O)NC[C@H]1C[C@@H](n2cnc3c(N[C@H]4CCc5ccccc54)ncnc32)[C@H](O)[C@@H]1O | 100 to 1000
7 | NS(=O)(=O)OC[C@H]1O[C@@H](n2cnc3c(N[C@@H]4c5ccccc5C[C@@H]4O)ncnc32)[C@H](O)[C@@H]1O | 100 to 1000
8 | Cc1noc(C)c1-c1ncnc2c1ncn2[C@@H]1O[C@H](COS(N)(=O)=O)[C@@H](O)[C@H]1O | 100 to 1000
9 | NS(=O)(=O)OC[C@H]1O[C@@H](n2cnc3c(C#Cc4ccc(F)cc4)ncnc32)[C@H](O)[C@@H]1O | 100 to 1000
10 | NS(=O)(=O)NC[C@H]1O[C@@H](n2cnc3c(NCc4ccc5c(c4)OCO5)ncnc32)[C@H](O)[C@@H]1O | 100 to 1000
11 | NS(=O)(=O)OC[C@H]1O[C@@H](n2cnc3c(CNC(=O)c4ccccc4)ncnc32)[C@H](O)[C@@H]1O | 100 to 1000
12 | NS(=O)(=O)OC[C@H]1O[C@@H](n2cnc3c(-c4ccco4)ncnc32)[C@H](O)[C@@H]1O | 100 to 1000
13 | NS(=O)(=O)OC[C@H]1O[C@@H](n2cnc3c(CN4Cc5ccccc5C4)ncnc32)[C@H](O)[C@@H]1O | 100 to 1000
14 | NS(=O)(=O)OC[C@H]1O[C@@H](n2cnc3c(N[C@@H](CO)c4ccccc4)ncnc32)[C@H](O)[C@@H]1O | 100 to 1000
15 | NS(=O)(=O)OC[C@H]1O[C@@H](n2cnc3c(NCCN4CCCC4)ncnc32)[C@H](O)[C@@H]1O | 100 to 1000
16 | NS(=O)(=O)OC[C@H]1O[C@@H](n2cnc3c(C#Cc4ccc(F)cc4F)ncnc32)[C@H](O)[C@@H]1O | 100 to 1000
17 | NS(=O)(=O)OC[C@H]1O[C@@H](n2cnc3c(CCc4ccccc4)ncnc32)[C@H](O)[C@@H]1O | 100 to 1000
18 | C[C@@]1(O)[C@H](O)[C@@H](COS(N)(=O)=O)O[C@H]1n1cnc2c(N[C@H]3CCc4ccccc43)ncnc21 | 100 to 1000
19 | COc1cccc(CNc2ncnc3c2ncn3[C@@H]2O[C@H](COS(N)(=O)=O)[C@@H](O)[C@H]2O)c1 | 100 to 1000
20 | NS(=O)(=O)OC[C@H]1O[C@@H](n2cnc3c(NCc4cccc5ccccc45)ncnc32)[C@H](O)[C@@H]1O | 100 to 1000
21 | NS(=O)(=O)OC[C@H]1O[C@@H](n2cnc3c(C#Cc4cccc(Cl)c4)ncnc32)[C@H](O)[C@@H]1O | 100 to 1000
22 | CCc1ncnc2c1ncn2[C@@H]1O[C@H](COS(N)(=O)=O)[C@@H](O)[C@H]1O | 100 to 1000
23 | CO[C@@H]1[C@H](O)[C@@H](COS(N)(=O)=O)O[C@H]1n1cnc2c(N[C@H]3CCc4ccccc43)ncnc21 | 100 to 1000
24 | NS(=O)(=O)OC[C@H]1O[C@@H](n2cnc3c(NCc4ccccc4)ncnc32)C[C@@H]1O | 100 to 1000

Row | Structure (SMILES) | IC50 [nM]
25 | NS(=O)(=O)OC[C@H]1O[C@@H](n2cnc3c(C#Cc4cc(F)cc(F)c4)ncnc32)[C@H](O)[C@@H]1O | 100 to 1000
26 | NS(=O)(=O)OC[C@H]1O[C@@H](n2cnc3c(CNC(=O)c4cccnc4)ncnc32)[C@H](O)[C@@H]1O | 100 to 1000
27 | NS(=O)(=O)CC[C@H]1O[C@@H](n2cnc3c(N[C@@H]4c5ccccc5C[C@@H]4O)ncnc32)[C@H](O)[C@@H]1O | 100 to 1000
28 | NS(=O)(=O)OC[C@@H]1C[C@@H](O)[C@H](n2cnc3c(N[C@H]4CCc5ccccc54)ncnc32)O1 | 100 to 1000
29 | NS(=O)(=O)OC[C@H]1O[C@@H](n2cnc3c(NCCN4CCN(Cc5ccccc5)CC4)ncnc32)[C@H](O)[C@@H]1O | 100 to 1000
30 | NS(=O)(=O)OC[C@H]1O[C@@H](n2cnc3c(C#Cc4ccc(Cl)cc4)ncnc32)[C@H](O)[C@@H]1O | 100 to 1000
31 | NS(=O)(=O)OC[C@H]1O[C@@H](n2cnc3c(C#Cc4ccccc4F)ncnc32)[C@H](O)[C@@H]1O | 100 to 1000
32 | NS(=O)(=O)OC[C@H]1O[C@@H](n2cnc3c(NCc4ccc(OC(F)(F)F)cc4)ncnc32)[C@H](O)[C@@H]1O | 100 to 1000
33 | NS(=O)(=O)OC[C@H]1O[C@@H](n2cnc3c(N[C@H]4CCc5ccccc54)ncnc32)[C@@H](O)[C@@H]1O | 100 to 1000
34 | NS(=O)(=O)OC[C@H]1O[C@@H](n2cnc3c(C#Cc4cccc(Br)c4)ncnc32)[C@H](O)[C@@H]1O | 100 to 1000
35 | NS(=O)(=O)OC[C@H]1O[C@@H](n2cnc3c(/C=C/c4ccccc4)ncnc32)[C@H](O)[C@@H]1O | 100 to 1000
36 | NS(=O)(=O)OC[C@H]1O[C@@H](n2cnc3c(C#Cc4ccccc4)ncnc32)C[C@@H]1O | 100 to 1000
37 | Cc1cnc(CNc2ncnc3c2ncn3[C@@H]2O[C@H](COS(N)(=O)=O)[C@@H](O)[C@H]2O)cn1 | 100 to 1000
38 | NS(=O)(=O)NC[C@H]1O[C@@H](n2cnc3c(NCc4ccccc4)ncnc32)[C@H](O)[C@@H]1O | 100 to 1000
39 | COCCNc1ncnc2c1ncn2[C@@H]1O[C@H](COS(N)(=O)=O)[C@@H](O)[C@H]1O | 100 to 1000
40 | CC(C)Cc1ncnc2c1ncn2[C@@H]1O[C@H](COS(N)(=O)=O)[C@@H](O)[C@H]1O | ≤ 1000
41 | NS(=O)(=O)OC[C@H]1O[C@@H](n2cnc3c(N[C@H]4CCc5ccccc54)nc(Cl)nc32)[C@H](O)[C@@H]1O | 100 to 1000
42 | CC(C)Cc1ncnc2c1ncn2[C@@H]1C[C@H](COS(N)(=O)=O)[C@@H](O)[C@H]1O | ≤ 1000
43 | NS(=O)(=O)OC[C@H]1O[C@@H](n2ccc3c(NC(=O)c4ccccc4)ncnc32)C[C@@H]1O | 100 to 1000
44 | CN(c1ncnc2c1ncn2[C@@H]1O[C@H](COS(N)(=O)=O)[C@@H](O)[C@H]1O)[C@H]1CCc2ccccc21 | 100 to 1000
45 | COc1ccccc1C(=O)Nc1ncnc2c1ncn2[C@@H]1O[C@H](COS(N)(=O)=O)[C@@H](O)[C@H]1O | 100 to 1000
46 | NS(=O)(=O)OC[C@H]1O[C@@H](n2cnc3c(NCc4ccc(F)cc4)ncnc32)[C@H](O)[C@@H]1O | 100 to 1000
47 | NS(=O)(=O)OC[C@H]1O[C@@H](n2cnc3c(NCc4cccs4)ncnc32)[C@H](O)[C@@H]1O | 100 to 1000
48 | NS(=O)(=O)OC[C@H]1O[C@@H](n2cnc3c(C#Cc4ccccc4C(F)(F)F)ncnc32)[C@H](O)[C@@H]1O | 100 to 1000

Row | Structure (SMILES) | IC50 [nM]
49 | NS(=O)(=O)OC[C@H]1O[C@@H](n2cnc3c(NCCN4CCOCC4)ncnc32)[C@H](O)[C@@H]1O | 100 to 1000
50 | NS(=O)(=O)OC[C@H]1O[C@@H](n2cnc3c(-c4ccccc4)ncnc32)[C@H](O)[C@@H]1O | 100 to 1000
51 | NS(=O)(=O)OC[C@H]1O[C@@H](n2ccc3c(N[C@H]4CCc5ccccc54)ncnc32)[C@H](O)[C@@H]1O | 100 to 1000
52 | CCc1cn([C@H]2C[C@H](O)[C@@H](COS(N)(=O)=O)O2)c2ncnc(CCc3ccccc3)c12 | ≤ 1000
53 | NS(=O)(=O)OC[C@H]1O[C@@H](n2cnc3c(CCc4ccccc4)ncnc32)[C@@H](F)[C@@H]1O (relative stereo) | 100 to 1000
54 | CC1(C)CC(Nc2ncnc3c2ncn3[C@@H]2O[C@H](CCS(N)(=O)=O)[C@@H](O)[C@H]2O)c2ccccc21 (stereo partly specified) | 100 to 1000
55 | NS(=O)(=O)OC[C@H]1O[C@@H](n2cnc3c(-c4cccc(-n5cccn5)c4)ncnc32)[C@H](O)[C@@H]1O | 100 to 1000
56 | NS(=O)(=O)OC[C@H]1O[C@@H](n2cnc3c(NCc4ccc5c(c4)OCO5)ncnc32)[C@H](O)[C@@H]1O | 100 to 1000
57 | NS(=O)(=O)OC[C@H]1O[C@@H](n2cnc3c(NC(=O)c4ccc(Br)cc4)ncnc32)[C@H](O)[C@@H]1O | 100 to 1000
58 | NS(=O)(=O)OC[C@H]1O[C@@H](n2cnc3c(NCC4CCCCC4)ncnc32)[C@H](O)[C@@H]1O | 100 to 1000
59 | NS(=O)(=O)OC[C@H]1O[C@@H](n2ccc3c(NCc4ccccc4)nccc32)C[C@@H]1O | ≤ 1000
60 | NS(=O)(=O)OC[C@H]1O[C@@H](n2cnc3c(-c4cccc(C(F)(F)F)c4)ncnc32)[C@H](O)[C@@H]1O | 100 to 1000
61 | NS(=O)(=O)NC[C@H]1O[C@@H](n2cnc3c(N[C@@H]4c5ccccc5C[C@@H]4O)ncnc32)[C@H](O)[C@@H]1O | 100 to 1000
62 | NS(=O)(=O)OC[C@H]1O[C@@H](n2cnc3c(C#Cc4ccccc4Br)ncnc32)[C@H](O)[C@@H]1O | 100 to 1000
63 | NS(=O)(=O)NC[C@H]1O[C@@H](n2cnc3c(N[C@@H](CO)c4ccccc4)ncnc32)[C@H](O)[C@@H]1O | 100 to 1000
64 | NS(=O)(=O)OC[C@H]1O[C@@H](n2cnc3c(NC(=O)c4ccccc4)ncnc32)[C@H](O)[C@@H]1O | 100 to 1000
65 | NS(=O)(=O)OC[C@H]1C[C@@H](n2cnc3c(C#Cc4ccccc4)ncnc32)C[C@@H]1O | 100 to 1000
66 | NS(=O)(=O)OC[C@H]1O[C@@H](n2ccc3c(N[C@H]4CCc5ccccc54)ncnc32)C[C@@H]1O | 100 to 1000
67 | NS(=O)(=O)NC[C@H]1O[C@@H](n2cnc3c(NC[C@H](O)c4cccc(O)c4)ncnc32)[C@H](O)[C@@H]1O | 100 to 1000
68 | COc1cccc(CNc2ncnc3c2ncn3[C@@H]2O[C@H](CNS(N)(=O)=O)[C@@H](O)[C@H]2O)c1 | 100 to 1000
69 | NS(=O)(=O)NC[C@H]1O[C@@H](n2cnc3c(NCC(c4ccccc4)c4ccccc4)ncnc32)[C@H](O)[C@@H]1O | 100 to 1000
70 | Nc1nc(N[C@H]2CCc3ccccc32)c2ncn([C@@H]3O[C@H](COS(N)(=O)=O)[C@@H](O)[C@H]3O)c2n1 | 100 to 1000
71 | NS(=O)(=O)OC[C@H]1O[C@@H](n2cnc3c(C#Cc4ccc(Br)cc4)ncnc32)[C@H](O)[C@@H]1O | 100 to 1000
